Data published in US20130316016A1, “ANTIBACTERIAL OR ANTI-ACNE FORMULATIONS CONTAINING USNIC ACID OR AN USNATE AND A METAL SALT” (EVOCUTIS PLC, priority 2010, published 2013).
Marks after values point to notes of the source that are not given here.

Test system: Propionibacterium acnes NCTC 737
Test: fixed ratio combination MIC/MBC assay
Format: cell-based
Settings: for active against P. acnes NCTC 737: compound alone, statement in words; for MBC / MIC: test compound alone; for MBC: P. acnes NCTC 737; for MIC: P. acnes NCTC 737, pH 6.0, anaerobic, 37° C., 72 hours
Procedure: The test organism used was Propionibacterium acnes NCTC 737. This is a propionibacterial strain and is the type strain of the […]; it is fully susceptible to antibiotics. The propionibacteria are clinically significant due to their involvement in acne. They are also opportunistic pathogens in compromised hosts. Activity observed against these micro-organisms is expected to be a good predictor of activity against acne. The propionibacteria were cultured and maintained on Wilkins-Chalgren Anaerobe Medium (agar and broth) at pH 6.0; all cultures were incubated anaerobically at 37° C. for 72 hours. The following “fixed ratio combination MIC/MBC assay” was carried out to assess antimicrobial activity against the test organism. The method used a sterile 96-well microtitre plate, capable of holding about 200 μl of liquid per well. […] The culture medium was as described above. The wells were inoculated with a liquid suspension of freshly grown micro-organism and incubated under the conditions described above. After incubation, the microtitre plate was examined visually (with the aid of a light box) for cloudiness in each well, which would indicate microbial growth. The minimum inhibitory concentration (MIC) value was recorded as the lowest concentration of test compound alone, or the lowest concentration of the mixture of the two test compounds, required to inhibit microbial growth, i.e. where the liquid in the well remained clear. The assays were conducted in triplicate and included both negative (culture medium with no micro-organisms) and positive (culture medium plus diluting solvent(s) plus micro-organism) controls. […] These samples were then individually sub-cultured on antibiotic-free agar medium, under the incubation conditions described above. Following incubation they were examined visually for microbial growth. […] A fractional inhibitory concentration index (FICI) or fractional bactericidal concentration index (FBCI) was then calculated for each compound in the relevant mixture, and these two indices were added together to give an overall FICI or FBCI to indicate the mode of interaction. Thus for each mixture (of two compounds A and B) which was tested, the FIC for compound A (FICA)=MIC for (A+B)/MIC for A alone. Similarly the FIC for compound B (FICB)=MIC for (A+B)/MIC for B alone. The overall […]. FBCs and FBCIs were calculated in the same manner, using recorded MBC values.

Compound: [Cl][Bi]([Cl])[Cl] [Bismuth (III) chloride, bismuth (III) chloride]
- active against P. acnes NCTC 737: active
- MBC: >19* μg/ml
- MIC: 19 µg/mL

Compound: CC(=O)c1c(O)c(C)c(O)c2c1OC1=CC(=O)C(C(C)=O)C(=O)C12C (stereo not drawn) [Usnic acid, 2,6-diacetyl-7,9-dihydroxy-8,9b-dimethyl-1,3(2H,9bh)-dibenzofurandione]
- active against P. acnes NCTC 737: active

Compound: O=S(=O)([O-])[O-].[Cu+2] [Copper (II) sulphate, copper (II) sulphate]
- active against P. acnes NCTC 737: active
- MBC: >14.5* μg/ml
- MIC: >14.5* μg/ml

Compound: [Cl][Cu][Cl] [Copper (II) chloride, copper (II) chloride]
- MBC: >22.25* μg/ml
- MIC: 12.2 µg/mL

Compound: CC(=O)[O-].CC(=O)[O-].[Cu+2] [Copper (II) acetate, copper (II) acetate]
- MBC: >16.8* μg/ml
- MIC: 16.8 µg/mL

Compound: CC(=O)[O-].[Cu+] [Copper (I) acetate, copper (I) acetate]
- MBC: 22.2 µg/mL
- MIC: 11.1 µg/mL

Compound: copper (II) D-gluconate
- MBC: >41.1* μg/ml
- MIC: >41.1* μg/ml
